According to ChEMBL document CHEMBL1147023, “(R)-sila-venlafaxine: a selective noradrenaline reuptake inhibitor for the treatment of emesis” (Bioorg Med Chem Lett, 2006):
The source made the active and inactive calls. The calls are words filed in the database; no cut-off is given here.

Experiments:
[1] = biological target: T1, Voltage-gated L-type calcium channel (Homo sapiens, UniProt Q13936+Q13698+Q01668+O60840); assay: Inhibition of diltiazem sensitive L type calcium channel by radioligand […] assay; type: protein assay
[2] = biological target: T1, Voltage-gated L-type calcium channel; assay: Inhibition of verapamil sensitive L type calcium channel by radioligand […] assay; type: protein assay
[3] = tested on: Mustela putorius furo; assay: Activity against morphine-induced emesis in ferret at 50 mg/kg; type: functional, organism-based; parameters: dose 50 mg/kg
[4] = biological target: Sodium-dependent serotonin transporter (Homo sapiens, UniProt P31645); assay: Inhibition of serotonin reuptake at human recombinant serotonin transporter
Sodium-dependent serotonin transporter, sequence (P31645 whole entry): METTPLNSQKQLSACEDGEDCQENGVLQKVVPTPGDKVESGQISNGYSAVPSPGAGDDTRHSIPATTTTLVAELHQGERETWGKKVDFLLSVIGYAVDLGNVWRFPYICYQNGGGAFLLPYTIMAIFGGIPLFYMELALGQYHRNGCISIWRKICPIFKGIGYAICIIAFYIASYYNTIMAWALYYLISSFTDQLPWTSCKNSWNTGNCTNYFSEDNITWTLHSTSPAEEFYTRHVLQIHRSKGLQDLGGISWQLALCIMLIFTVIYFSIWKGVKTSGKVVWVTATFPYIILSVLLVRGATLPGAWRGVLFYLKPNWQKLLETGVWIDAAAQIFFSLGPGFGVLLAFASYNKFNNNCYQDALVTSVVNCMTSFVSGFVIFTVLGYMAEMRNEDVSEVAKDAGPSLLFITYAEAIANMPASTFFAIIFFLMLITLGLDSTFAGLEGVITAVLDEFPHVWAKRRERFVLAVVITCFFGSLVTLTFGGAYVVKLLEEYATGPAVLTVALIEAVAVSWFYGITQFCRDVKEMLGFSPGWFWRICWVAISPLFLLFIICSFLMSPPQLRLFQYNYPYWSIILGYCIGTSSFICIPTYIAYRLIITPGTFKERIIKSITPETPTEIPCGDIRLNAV

[5] = tested on: Mustela putorius furo; assay: Inhibition of morphine-induced emesis in ferret at 5 mg/kg; type: functional
[6] = Cmax in ferret at 5 mg/kg, po; type: ADME, organism-based, Mustela putorius furo; parameters: dose 5 mg/kg, route oral; settings: in vivo
[7] = Plasma half life in ferret at 5 mg/kg, po; type: ADME, organism-based, Mustela putorius furo; parameters: dose 5 mg/kg, route oral
[8] = biological target: Sodium-dependent noradrenaline transporter (Homo sapiens, UniProt P23975); assay: Inhibition of noradrenaline reuptake at human recombinant noradrenaline transporter
Sodium-dependent noradrenaline transporter, sequence (P23975 whole entry): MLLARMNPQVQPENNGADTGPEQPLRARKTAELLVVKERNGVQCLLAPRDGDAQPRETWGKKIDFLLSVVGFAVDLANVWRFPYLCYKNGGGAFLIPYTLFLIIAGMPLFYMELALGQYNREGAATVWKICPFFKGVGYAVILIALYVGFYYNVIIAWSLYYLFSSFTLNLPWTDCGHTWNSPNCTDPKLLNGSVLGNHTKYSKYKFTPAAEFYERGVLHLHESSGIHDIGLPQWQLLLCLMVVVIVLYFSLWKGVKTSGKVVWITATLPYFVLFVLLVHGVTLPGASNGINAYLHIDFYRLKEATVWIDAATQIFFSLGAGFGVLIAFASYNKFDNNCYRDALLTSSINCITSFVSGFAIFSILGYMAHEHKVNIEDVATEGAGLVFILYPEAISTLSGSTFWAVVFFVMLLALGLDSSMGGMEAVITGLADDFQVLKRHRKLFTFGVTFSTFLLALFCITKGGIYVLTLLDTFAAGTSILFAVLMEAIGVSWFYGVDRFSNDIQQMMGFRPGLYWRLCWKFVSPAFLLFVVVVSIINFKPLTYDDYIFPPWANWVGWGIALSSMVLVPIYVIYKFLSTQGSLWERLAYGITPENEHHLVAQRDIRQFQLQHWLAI

[9] = tested on: Mustela putorius furo; assay: Activity against morphine-induced emesis in ferret at 1 mg/kg; type: functional, organism-based; parameters: dose 1 mg/kg
[10] = Inhibitory activity against site 2 of sodium channel by radioligand […] assay

COc1ccc([C@H](CN(C)C)[Si]2(O)CCCCC2)cc1
IC50 [1]: 2.7 µM
IC50 [2]: 8.6 µM
Activity [3]: Active
IC50 [4]: 4.2 µM
inhibition in vivo at 5 mg/kg [5]: 93%
Cmax [6]: 225 ng/mL
half-life [7]: 1.1 h
IC50 [8]: 0.2 µM
Activity [9]: inactive
IC50 [10]: 5.1 µM
